The values below come from US9321785B2, “Methods for the treatment or prophylaxis of thrombosis or embolism” (IPCA Laboratories Limited, priority 2010, dated 2016).

For data set [1], the system named is recurrent ischemic events / major bleeding events. To be noted: cited from earlier work.
Data set [2] relates to ADP induced platelet aggregation (platelet-rich plasma). As to the kind of experiment: Measurement of platelet aggregation with ADP, ex vivo after oral administration. It counts as in vivo, rat. The conditions noted are these: 2 h before sampling, ADP 2.5 μM. As to the method: The platelet aggregation inhibiting activities and the antithrombotic activities of the compounds were studied in the rat by standard methods. The activity on the aggregation of plates induced by ADP or collagen was determined ex-vivo. […] The aggregating solutions used were: a 500 μM aqueous solution of ADP (final concentration 2.5 μM). The aggregation of the platelets was monitored as described by Born (Nature 194, p. 927 […]), which is incorporated herein by reference, using a Coultronics® aggregometer at a temperature of 37° C. and agitation of 900 rpm. For aggregation with ADP, the aggregometer generates a curve representing a platelet aggregation as measured by a change in optical density. The height of this curve is defined as the height of aggregation. […] The controls are without drug.

In data set [3] the test system is venous thrombus in vena cava. As to the kind of experiment: Venous thrombosis on a screw thread (antithrombotic activity). It counts as in vivo, rat. To be noted: for % inhibition / Weight of thrombus: thrombus after 5 h. From the text:
The antithrombotic activity has also been studied in the test of venous thrombosis on a screw thread described by Kumada T. et al. in Thromb. Res 18 p. 189 (1980). Female rats of the same type as those previously described, in groups of 10 animals, were anesthetized with diethyl ether and their vena cava was isolated after abdominal incision. […] The thrombi formed rapidly and five hours later, under pentobarbital anesthesia, the abdomen is reopened and ligatures are placed above and below the screw thread which is withdrawn after longitudinal incision of the vein and the isolated thrombus is weighed. […] The control is without drug.

Data set [4] has as its system ADP induced platelet aggregation. To be noted: cited from earlier work; for Time until 50% inhibition of ADP induced platelet aggregation is reached: 5 μM ADP ex vivo, LTA.
The conditions of data set [5]: rat; cited from earlier work.
For data set [6] the following is noted: cited from earlier work.
Data set [7] can be described thus: Activity of clopidogrel metabolite. To be noted: metabolite in the clopidogrel pathway. The text has this: Thus, the influence that the patient's ability to metabolize has on efficacy is reduced.
Where [8] appears, read: patients at high risk of vascular events.
Setting [9] is: combined with Aspirin therapy, patients with ACS.

Where two headings read alike, the source gives them in different places.

As to `CC(=O)Oc1ccccc1C(=O)O` [Aspirin], in data set [1] (setting [8]), the “Absolute risk increase (ARI), major bleeding events” value was “about 0.5%”; the “Absolute risk reduction (ARR), recurrent ischemic events” value is on record as “about 2%”; the “Increase in the odds of major bleeding events” value is recorded as “about 60%”; the “Reduction of the risk of recurrent ischemic events” value is recorded as 22%.
Consider `COC(=O)[C@H](c1ccccc1Cl)N1CCc2sccc2C1` [Clopidogrel bisulphate], for which, in data set [2] (Rattus norvegicus, Platelet, oral dose 12.5 mg/kg (base 9.813 mg/kg)), at 12.5 mg/kg the inhibition was 82%. In addition, at 25 mg/kg the inhibition in data set [2] (Rattus norvegicus, Platelet, oral dose 25 mg/kg (base 19.225 mg/kg)) was 89%. The “% aggregation (height)” value in data set [2] (oral dose 12.5 mg/kg (base 9.813 mg/kg), control 103 ± 3) was determined as 19 ± 4%; in data set [2] (oral dose 25 mg/kg (base 19.225 mg/kg), control 103 ± 3), 11 ± 1%. Further, the “% inhibition” value stood at 67% in data set [3] (dose 10 mg/kg (base 7.69 mg/kg)) and 69% in data set [3] (dose 20 mg/kg (base 15.38 mg/kg)). For the same molecule, the Weight of thrombus in data set [3] (dose 10 mg/kg (base 7.69 mg/kg), control 3.9 ± 0.3) came to 1.26 ± 0.19 mg; in data set [3] (dose 20 mg/kg (base 15.38 mg/kg), control 3.9 ± 0.3), 1.20 ± 0.13 mg.
`COC(=O)[C@H](c1ccccc1Cl)N1CCc2sccc2C1` [Clopidogrel, (+)-(S)-methyl 2-(2-chlorophenyl)-2-(6,7-dihydrothieno[3,2-c]pyridin-5(4H)-yl)acetate]: in data set [1] (setting [9]), the “Absolute risk reduction (ARR), recurrent ischemic events” value is “about 2.1%” and the “Further reduction of the risk of recurrent ischemic events” value is listed as 20%. Besides, the “Time until 50% inhibition of ADP induced platelet aggregation is reached” value in data set [4] (dose 600 mg) was 2 h. Besides, the “Inhibition of ADP induced platelet aggregation” value in data set [4] (dose 900 mg, 5 μM ADP) was 60%. For the same molecule, in data set [4] (dose 900 mg, 20 μM ADP ex vivo), the “Inhibition of platelet aggregation” value is “less than 50%”. Further, the “Time until 50% inhibition of ADP induced platelet aggregation is reached” value in data set [4] (loading dose 300 mg) was 4 to 6 h. In data set [5], the Lethal dose entry is “about 5000 mg per kg”. The “Fraction converted to clopidogrel acid in vivo” value in data set [6] is 90%.
In the case of `O=C(O)[C@H](c1ccccc1Cl)N1CCc2sccc2C1` [Formula IV], the “Activity of the metabolite” value in data set [7] was “inactive”.
The molecule `COC(=O)[C@H](c1ccccc1Cl)N1CCC2SC(=O)C=C2C1` (stereo partly drawn) [Thiolactone, Methyl(S)-2(2-chlorophenyl)-2-(2,4,5,6,7,7a-hexahydrothieno[3,2-c]-5-pyridin-2-one)acetate] displayed an inhibition at 2.5 mg/kg in data set [2] (Rattus norvegicus, Platelet, oral dose 2.5 mg/kg (base 2.5 mg/kg)) of 95%. Moreover, the “% aggregation (height)” value in data set [2] (oral dose 2.5 mg/kg (base 2.5 mg/kg), control 94 ± 1) is 4 ± 2%. Also, the “Antithrombotic activity compared with clopidogrel” value in data set [3] (Table 2) is given as “superior to clopidogrel”. Also, the “% inhibition” value in data set [3] (dose 12.5 mg/kg (base 12.5 mg/kg)) was 76%. In data set [3] (dose 12.5 mg/kg (base 12.5 mg/kg), control 4.18 ± 0.31), this molecule registered a Weight of thrombus of 1.18 ± 0.18 mg.
